Counter-ions that a name gives are not always drawn.

Our source for the IC50 values is patent publication US9662310B2, “Cyclopropanecarboxylic acid derivative” (DAIICHI SANKYO COMPANY, LIMITED, priority 2010, dated 2017).

Sequence of TAFIa (Q96IY4 115-423): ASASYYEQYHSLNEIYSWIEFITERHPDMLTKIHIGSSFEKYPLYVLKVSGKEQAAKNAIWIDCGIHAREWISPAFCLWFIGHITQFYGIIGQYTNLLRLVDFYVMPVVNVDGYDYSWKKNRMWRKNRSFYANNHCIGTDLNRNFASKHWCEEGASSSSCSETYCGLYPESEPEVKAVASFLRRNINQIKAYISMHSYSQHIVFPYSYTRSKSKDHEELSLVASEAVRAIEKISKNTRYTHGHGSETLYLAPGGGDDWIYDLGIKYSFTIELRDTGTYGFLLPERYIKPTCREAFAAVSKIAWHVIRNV

One assay addresses TAFIa (Homo sapiens (Human), UniProt Q96IY4). Nature of the assay: Determination of TAFIa enzyme inhibitory activity (FAAK substrate degradation). In kind it is biochemical. To be noted: TAFI activated with human thrombin / rabbit lung thrombomodulin; substrate FAAK, absorbance at 330 nm; di-p-toluenesulfonate; read-out: TAFIa IC50. The protocol:
Determination of TAFIa Enzyme Inhibitory Activity
HEPES buffered saline (20 mM HEPES, 150 mM NaCl, pH 7.4; hereinafter, referred to as HBS) was used in the preparation of a reaction solution. To 12 μL of a 250 μg/mL TAFI solution, 30 μL of an HBS solution containing 4 U/mL human thrombin, 12 U/mL rabbit lung thrombomodulin, and 12 mM CaCl2 was added, and the mixture was gently stirred. Then, TAFI was activated at room temperature. Ten minutes later, thrombin was neutralized by the addition of 10 μL of 100 μM PPACK (thrombin inhibitor) to terminate the activation of TAFI. The formed TAFIa was stored in ice and diluted immediately before use in determination with 2050 μL of an HBS solution containing BSA (bovine serum albumin) adjusted to 0.1% in terms of the final concentration.
(2) Determination of TAFIa Inhibitory Activity
A test substance was dissolved in HBS to prepare a 10-fold dilution series of evaluation concentrations. 80 μL of the TAFIa solution and 10 μL of the test substance were added to each well of a 96-well plate and mixed by shaking for 10 minutes. 10 μL of furylacryloyl-alanyl-lysine (FAAK) adjusted to 5 mg/mL was added to each well, and the change in the absorbance of this mixed solution at 330 nm was read for 30 minutes to determine the degradation rate of the substrate.
(3) Calculation of Inhibitory Activity IC50
The degradation rate of the substrate in each well was applied to a standard curve prepared using the dilution series of the TAFIa solution to calculate TAFIa activity.
As to `NCCC[C@H]1C[C@]1(C(=O)O)c1cn(-c2ccccc2)cn1` [Example 31, (1R,2S)-2-(3-Aminopropyl)-1-(1-phenyl-1H-imidazol-4-yl)cyclopropanecarboxylic acid di-p-toluenesulfonate], the concentration for half-maximal inhibition (IC50) (commonly the concentration that inhibits the measured activity by half) came to 15 nM.

The assay is the same for the next values; noted with them: TAFI activated with human thrombin / rabbit lung thrombomodulin; substrate FAAK, absorbance at 330 nm; read-out: TAFIa IC50.
Regarding `C[C@@H](CN)C[C@H]1C[C@]1(C(=O)O)c1cn(-c2ccccn2)cn1` [Example 54, (1R,2S)-2-[(2R)-3-Amino-2-methylpropyl]-1-(1-pyridin-2-yl-1H-imidazol-4-yl]cyclopropanecarboxylic acid], the concentration for half-maximal inhibition (IC50) turned out to be 11 nM. In the case of `C[C@H](CN)C[C@@H]1C[C@@]1(C(=O)O)c1cn(-c2ccccn2)cn1` [Example 57, (1S,2R)-2-[(2S)-3-Amino-2-methylpropyl]-1-(1-pyridin-2-yl-1H-imidazol-4-yl]cyclopropanecarboxylic acid], the IC50 came to 490 nM. Still for that read-out and setting: under `Cc1ccnc(-n2cnc([C@@]3(C(=O)O)C[C@@H]3CCCN)c2)c1` (relative stereo) [Example 64, (1R*,2S*)-2-(3-Aminopropyl)-1-[1-(4-methylpyridin-2-yl)-1H-imidazol-4-yl]cyclopropanecarboxylic acid] stands 19 nM. As to `NCCC[C@H]1C[C@]1(C(=O)O)c1cn(-c2cccc(Cl)c2)cn1` (relative stereo) [Example 19, (1R*,2S*)-2-(3-Aminopropyl)-1-[1-(3-chlorophenyl)-1H-imidazol-4-yl]cyclopropanecarboxylic acid], the IC50 was determined as 70 nM.

For `Cc1ccccc1-n1cnc([C@@]2(C(=O)O)C[C@@H]2CCCN)c1` (relative stereo) [Example 9, (1R*,2S*)-2-(3-Aminopropyl)-1-[1-(2-methylphenyl)-1H-imidazol-4-yl]cyclopropanecarboxylic acid], the half-inhibitory concentration (IC50) was more than 300 nM. On the same count and under the same terms, under `NCCC[C@H]1C[C@]1(C(=O)O)c1cn(-c2cccs2)cn1` (relative stereo) [Example 37, (1R*,2S*)-2-(3-Aminopropyl)-1-[1-(2-thienyl)-1H-imidazol-4-yl]cyclopropanecarboxylic acid dihydrochloride] stands 100 nM; under `Cc1ccc(-n2cnc([C@@]3(C(=O)O)C[C@@H]3CC(C)CN)c2)cc1` (relative stereo) [Example 33, (1R*,2S*)-2-(3-Amino-2-methylpropyl)-1-[1-(4-methylphenyl)-1H-imidazol-4-yl]cyclopropanecarboxylic acid], 39 nM; under `NCCC[C@H]1C[C@]1(C(=O)O)c1cn(-c2ccc(F)cn2)cn1` (relative stereo) [Example 41, (1R*,2S*)-2-(3-Aminopropyl)-1-[1-(5-fluoropyridin-2-yl)-1H-imidazol-4-yl]cyclopropanecarboxylic acid], 19 nM. Take `NCCC[C@H]1C[C@]1(C(=O)O)c1cn(-c2ccncc2)cn1` (relative stereo) [Example 23, (1R*,2S*)-2-(3-Aminopropyl)-1-(1-pyridin-4-yl-1H-imidazol-4-yl)cyclopropanecarboxylic acid hydrochloride]: the half-inhibitory concentration (IC50) was found to be 170 nM. Consider `NCCC[C@H]1C[C@]1(C(=O)O)c1cn(C2CCCCC2)cn1` (relative stereo) [Example 4, (1R*,2S*)-2-(3-Aminopropyl)-1-(1-cyclohexyl-1H-imidazol-4-yl)cyclopropanecarboxylic acid], for which the IC50 is 29 nM. With `NCCC[C@H]1C[C@]1(C(=O)O)c1cn(-c2ccccn2)cn1` [Example 48, (1R,2S)-2-(3-Aminopropyl)-1-(1-pyridin-2-yl-1H-imidazol-4-yl)cyclopropanecarboxylic acid], the IC50 amounted to 11 nM. Consider `NCCC[C@H]1C[C@]1(C(=O)O)c1cn(-c2ccc(C(F)(F)F)cc2)cn1` (relative stereo) [Example 13, (1R*,2S*)-2-(3-Aminopropyl)-1-{1-[4-(trifluoromethyl)phenyl]-1H-imidazol-4-yl}cyclopropanecarboxylic acid], for which the half-inhibitory concentration (IC50) was found to be 140 nM.

For the compound `CC[C@@H](CN)C[C@H]1C[C@]1(C(=O)O)c1cn(-c2ccccc2)cn1` [Example 62, (1R,2S)-2-[(2R)-2-(Aminomethyl)butyl]-1-(1-phenyl-1H-imidazol-4-yl)cyclopropanecarboxylic acid], the half-inhibitory concentration (IC50) amounted to 7.9 nM.

On to `NCCC[C@H]1C[C@]1(C(=O)O)c1cn(-c2cc3ccccc3cn2)cn1` (relative stereo) [Example 46, (1R*,2S*)-2-(3-Aminopropyl)-1-(1-isoquinolin-3-yl-1H-imidazol-4-yl)cyclopropanecarboxylic acid], for which the IC50 was determined as 16 nM. As to `Cc1ccc(-n2cnc([C@@]3(C(=O)O)C[C@@H]3CCCN)c2)cc1` (relative stereo) [Example 7, (1R*,2S*)-2-(3-Aminopropyl)-1-[1-(4-methylphenyl)-1H-imidazol-4-yl]cyclopropanecarboxylic acid], the IC50 stood at 16 nM. Regarding `CCCn1cnc([C@@]2(C(=O)O)C[C@@H]2CCCN)c1` (relative stereo) [Example 3, (1R*,2S*)-2-(3-Aminopropyl)-1-(1-propyl-1H-imidazol-4-yl)cyclopropanecarboxylic acid], the IC50 was 97 nM.

Consider `NCCC[C@H]1C[C@]1(C(=O)O)c1cn(-c2ccccc2Cl)cn1` (relative stereo) [Example 20, (1R*,2S*)-2-(3-Aminopropyl)-1-[1-(2-chlorophenyl)-1H-imidazol-4-yl]cyclopropanecarboxylic acid hydrochloride], for which the half-inhibitory concentration (IC50) came out at 140 nM. Turning to `NCCC[C@H]1C[C@]1(C(=O)O)c1cn(-c2ccc3occc3c2)cn1` (relative stereo) [Example 43, (1R*,2S*)-2-(3-Aminopropyl)-1-[1-(1-benzofuran-5-yl)-1H-imidazol-4-yl]cyclopropanecarboxylic acid], the IC50 was determined as 26 nM. Consider `NCCC[C@H]1C[C@]1(C(=O)O)c1cn(-c2ccc(F)cc2)cn1` (relative stereo) [Example 15, (1R*,2S*)-2-(3-Aminopropyl)-1-[1-(4-fluorophenyl)-1H-imidazol-4-yl]cyclopropanecarboxylic acid], for which the IC50 came out at 21 nM. With `C[C@H]1CC[C@H](n2cnc([C@@]3(C(=O)O)C[C@@H]3CCCN)c2)CC1` (relative stereo) [Example 5, (1R*,2S*)-2-(3-Aminopropyl)-1-[1-(trans-4-methylcyclohexyl)-1H-imidazol-4-yl]cyclopropanecarboxylic acid], the IC50 is 14 nM. On to `CC(C)(CN)C[C@@H]1C[C@]1(C(=O)O)c1cn(-c2ccccc2)cn1` (relative stereo) [Example 52, (1R*,2R*)-2-(3-Amino-2,2-dimethylpropyl)-1-(1-phenyl-1H-imidazol-4-yl]cyclopropanecarboxylic acid], for which the IC50 was more than 300 nM. Same read-out and setting: under `NCCC[C@H]1C[C@]1(C(=O)O)c1cn(-c2ccc3ccccc3n2)cn1` (relative stereo) [Example 42, (1R*,2S*)-2-(3-Aminopropyl)-1-(1-quinolin-2-yl-1H-imidazol-4-yl)cyclopropanecarboxylic acid] stands 58 nM. `N#Cc1ccc(-n2cnc([C@@]3(C(=O)O)C[C@@H]3CCCN)c2)cc1` (relative stereo) [Example 40, (1R*,2S*)-2-(3-Aminopropyl)-1-[1-(4-cyanophenyl)-1H-imidazol-4-yl]cyclopropanecarboxylic acid]: the concentration for half-maximal inhibition (IC50) came out at 29 nM.

For `CC(CCN)[C@H]1C[C@]1(C(=O)O)c1cn(-c2ccccc2)cn1` (relative stereo) [Example 36, (1R*,2R*)-2-(3-Amino-1-methylpropyl)-1-(1-phenyl-1H-imidazol-4-yl)cyclopropanecarboxylic acid], the IC50 turned out to be 36 nM. For `NCCC[C@H]1C[C@]1(C(=O)O)c1cn(-c2cccc(F)c2)cn1` (relative stereo) [Example 22, (1R*,2S*)-2-(3-Aminopropyl)-1-[1-(3-fluorophenyl)-1H-imidazol-4-yl]cyclopropanecarboxylic acid], the IC50 turned out to be 40 nM. On to `Cc1cccc(-n2cnc([C@@]3(C(=O)O)C[C@@H]3CCCN)c2)c1` (relative stereo) [Example 8, (1R*,2S*)-2-(3-Aminopropyl)-1-[1-(3-methylphenyl)-1H-imidazol-4-yl]cyclopropanecarboxylic acid], for which the half-inhibitory concentration (IC50) turned out to be 37 nM.

The assay is the same for the next values; noted with them: TAFIa IC50.
`CC(C)(C)CCn1cnc(C2(C(=O)O)CC2CCCN)c1` (single isomer, unassigned) [Example 1, (1R*,2S*)-2-(3-Aminopropyl)-1-[1-(3,3-dimethylbutyl)-1H-imidazol-4-yl]cyclopropanecarboxylic acid] had a concentration for half-maximal inhibition (IC50) of 8.7 nM. Consider `CC(C)(C)CCn1cnc(C2(C(=O)O)CC2CCCN)c1` (single isomer, unassigned) [Example 2, (1R*,2R*)-2-(3-Aminopropyl)-1-[1-(3,3-dimethylbutyl)-1H-imidazol-4-yl]cyclopropanecarboxylic acid], for which 420 nM corresponded to half-maximal inhibition (IC50).

The assay is the same for the next values; noted with them: read-out: TAFIa IC50.
As to `CC(C)(C)CCn1cnc([C@@]2(C(=O)O)C[C@@H]2CCCN)c1` [Example 28, (1R,2S)-2-(3-Aminopropyl)-1-[1-(3,3-dimethylbutyl)-1H-imidazol-4-yl]cyclopropanecarboxylic acid], the IC50 stood at 4.5 nM.
